≈ marks a conversion by molar mass, not a printed value. Where two headings read alike, the source gives them in different places.
Experiments:
Assay in all cases: In vitro antibacterial activity (MIC), two-fold agar-plate dilution method
Format in all cases: cell-based
[1] = test system: Pseudomonas aeruginosa FP 1380; conditions: Pseudomonas aeruginosa FP 1380, AmpC β-lactamase overproduced strain, HI-agar, 37° C. for 20 hours
Method: (§1) Now in order to show the utility of the object compound [I], the test data on MIC (minimal inhibitory concentration) of a representative compound of this invention are shown in the following.
(§2) In vitro antibacterial activity was determined by the two-fold agar-plate dilution method as described below.
(§3) One loopful of an overnight culture of each test strain in Trypticase-soy broth (10^6 viable cells per ml) was streaked on heart infusion agar (HI-agar) containing graded concentrations of representative test compound, and the minimal inhibitory concentration (MIC) was expressed in μg/ml after incubation at 37° C. for 20 hours.

[2] = test system: Pseudomonas aeruginosa 19136; conditions: Pseudomonas aeruginosa 19136, metallo β-lactamase producing strain, HI-agar, 37° C. for 20 hours
Method: as §1, §2, §3

[3] = test system: Pseudomonas aeruginosa 22027; conditions: Pseudomonas aeruginosa 22027, metallo β-lactamase producing strain, HI-agar, 37° C. for 20 hours
Method: as §1, §2, §3

## 7β-[(Z)-2-(5-amino-1,2,4-thiadiazol-3-yl)-2-(1-carboxy-1-methylethoxyimino)acetamido]-3-{3-[1-(3-aminopropyl)guanidino]-2,3-dihydro-5-(1H-imidazo[1,2-b]pyrazolio)}methyl-3-cephem-4-carboxylate sulfate [Compound (A)]
[1]
  MIC: 0.5 µg/mL
[2]
  MIC: 2 µg/mL
[3]
  MIC: 8 µg/mL

## CC(C)(O/N=C(\C(=O)N[C@@H]1C(=O)N2C(C(=O)O)=C(C[n+]3cc(N(CCN)C(=N)N)c4n3CCCN4)CS[C@H]12)c1nsc(N)n1)C(=O)O.O=S(=O)([O-])O [Compound (B), 7β-[(Z)-2-(5-amino-1,2,4-thiadiazol-3-yl)-2-(1-carboxy-1-methylethoxyimino)acetamido]-3-{3-[1-(2-aminoethyl)guanidino]-4,5,6,7-tetrahydro-1-(pyrazolo[1,5-a]pyrimidinio)}methyl-3-cephem-4-carboxylate sulfate]
[1]
  MIC: 0.5 µg/mL
[2]
  MIC: 2 µg/mL
[3]
  MIC: 8 µg/mL

## C[C@H]1[C@H](NC(=O)/C(=N\OC(C)(C)C(=O)O)c2csc(N)n2)C(=O)N1S(=O)(=O)O [Aztreonam, reference compound]
[1]; FP1380, read-out: MIC
  MIC: 64 µg/mL (≈ 147 µM)
[2]; read-out: MIC
  MIC: 4 µg/mL (≈ 9.19 µM)
[3]; read-out: MIC
  MIC: 32 µg/mL (≈ 73.5 µM)
